Measurements taken from paper PMC7672472 (2020).
Like-named read-outs stand apart in the source and are kept apart here.

Key:
[1] = tested on: MA-46 (MA) (DNA, aptamer) CTTACGACTCAGGCATTTTGCCGGGTAACGAAGTTACTGTCGTAAG; test: ITC; settings: 20 mM Na+, 5 mM Mg2+
[2] = tested on: SCA2.1 (DNA, aptamer) CTTACGACCTTAAGTGGGGTTCGGGTGGAGTTTATGGGGTCGTAAG; test: ITC; settings: 20 mM Na+, 0.5 mM Mg2+; 10 mM Tris-HCl pH 7.4, 23 °C; one-site model
[3] = tested on: Dopamine Aptamer (DNA, aptamer) CGACGCCAGTTTGAAGGTTCGTTCGCAGGTGTGGAGTGACGTCG; settings: 140 mM Na+, 4 mM K+, 2 mM Mg2+; 10 mM phosphate pH 7.4, 25 °C; 200 μM ligand
[4] = tested on: SCA2.1 (DNA, aptamer) CTTACGACCTTAAGTGGGGTTCGGGTGGAGTTTATGGGGTCGTAAG; settings: 20 mM Na+, 0.5 mM Mg2+; 10 mM Tris-HCl pH 7.4, 25 °C; 50 μM ligand
[5] = tested on: MMC1 (DNA, aptamer) CTTACGACCAGGGTTGGTTTCATCGGTGGTGTAATATGGTCGTAAG; test: ITC; settings: 20 mM Na+, 0.5 mM Mg2+
[6] = tested on: Dopamine Aptamer (DNA, aptamer) CGACGCCAGTTTGAAGGTTCGTTCGCAGGTGTGGAGTGACGTCG; test: T5 Exo/Exo I digestion, SYBR Gold fluorescence; settings: 140 mM Na+, 4 mM K+, 2 mM Mg2+; 10 mM phosphate pH 7.4, 25 °C; 200 μM ligand
[7] = tested on: ATP-33 (DNA, aptamer) CGCACCTGGGGGAGTATTGCGGAGGAAGGTGCG; test: T5 Exo digestion, PAGE; settings: 10 mM Mg2+; 10 mM Tris-HCl pH 7.4, 25 °C; 250 μM ligand
[8] = tested on: ATP-28 (DNA, aptamer) CTGGGGGAGTATTGCGGAGGAAGGTGCG; test: ITC; settings: 10 mM Mg2+; 10 mM Tris-HCl pH 7.4, 23 °C; sequential model, site 1 of 2
[9] = tested on: MA-Mutant (DNA, aptamer) CTTACGACGCAGGCATTTTGCCGGGTAACGAAGTTACTGTCGTAAG; test: ITC; settings: 20 mM Na+, 5 mM Mg2+
[10] = tested on: MA-41 (DNA, aptamer) GACTCAGGCATTTTGCCGGGTAACGAAGTTACTGTCGTAAG; test: ITC; settings: 20 mM Na+, 5 mM Mg2+; 10 mM Tris-HCl pH 7.4, 23 °C; one-site model
[11] = tested on: MMC3 (DNA, aptamer) CTTACGGCCAGGGTTGGTCTCATCGGTGGTGTAATATGGTCGTAAG; test: continuous-injection ITC and exonuclease assay; settings: 20 mM Na+, 0.5 mM Mg2+
[12] = tested on: MMC2 (DNA, aptamer) CTTACGACCAGGGTTGGTCTCATCGGTGGTGTAATATGGTCGTAAG; test: continuous-injection ITC and exonuclease assay; settings: 20 mM Na+, 0.5 mM Mg2+
[13] = tested on: MMC1-42 (DNA, aptamer) CGACCAGGGTTGGTTTCATCGGTGGTGTAATATGGTCGTAAG; test: ITC; settings: 20 mM Na+, 0.5 mM Mg2+; 10 mM Tris-HCl pH 7.4, 23 °C; one-site fit, half racemate concentration stated for MMC1 titrations
[14] = tested on: MMC1-Mutant (DNA, aptamer) CTTACGACCAGGGTTGGTTTCACCGGTGGTGTAATATGGTCGTAAG; test: ITC; settings: 20 mM Na+, 0.5 mM Mg2+; 10 mM Tris-HCl pH 7.4, 23 °C; 2000 μM ligand in syringe
[15] = tested on: MMC5 (DNA, aptamer) CTTACCGACTATATGGGCAGTATCGTCTAGTGCCTAAGGGTCGTAAG; test: continuous-injection ITC and exonuclease assay; settings: 20 mM Na+, 0.5 mM Mg2+; 10 mM Tris-HCl pH 7.4, 23 °C; 1000 μM ligand in syringe; very weak or no binding
[16] = tested on: MMC4 (DNA, aptamer) CTTACGAAGCAGGTGGGTAGGATAGTGTGTGTGCTGTCGTCGTAAG; test: continuous-injection ITC and exonuclease assay; settings: 20 mM Na+, 0.5 mM Mg2+
[17] = 10 mM Tris-HCl pH 7.4, 23 °C, 1000 μM ligand in syringe
[18] = 10 mM Tris-HCl pH 7.4, 23 °C, one-site model

## CCN(CC)CC(=O)Nc1c(C)cccc1C
[1]; [17]
  Kd: > 1000 µM

## CN(C)CCCN1c2ccccc2Sc2ccc(Cl)cc21
[1]; [18]
  Kd: 0.6 ± 0.1 µM

## CNC(C)Cc1ccc2c(c1)OCO2 (stereo not drawn)
[2]
  Kd: 24.5 ± 0.9 µM
[3]
  binding: no
[1]; [18]
  Kd: 103 ± 4 µM

## CN[C@@H](C)Cc1ccccc1
[4]
  binding: no
[1]
  Kd: > 1000 µM

## CN[C@@H](C)[C@H](O)c1ccccc1
[2]
  Kd: 64 ± 3 µM

## COC(=O)[C@H]1[C@@H](OC(=O)c2ccccc2)C[C@@H]2CC[C@H]1N2C
[4]
  binding: no

## NCCc1c[nH]c2ccc(O)cc12
[1]; [18]
  Kd: 55 ± 2 µM

## NCCc1ccc(O)c(O)c1
[5]; [17]
  Kd: > 1000 µM
[6]
  binding: yes

## N[C@@H](Cc1ccc(O)cc1)C(=O)O
[6]
  binding: no

## Nc1ccn([C@@H]2O[C@H](COP(=O)(O)OP(=O)(O)OP(=O)(O)O)[C@@H](O)[C@H]2O)c(=O)n1
[7]
  binding: no

## Nc1nc2c(ncn2[C@@H]2O[C@H](COP(=O)(O)OP(=O)(O)OP(=O)(O)O)[C@@H](O)[C@H]2O)c(=O)[nH]1
[7]
  binding: no

## Nc1ncnc2c1ncn2[C@@H]1O[C@H](COP(=O)(O)OP(=O)(O)OP(=O)(O)O)[C@@H](O)[C@H]1O
[8]
  Kd1: 4.1 ± 0.2 µM
[7]
  binding: yes

## O=c1ccn([C@@H]2O[C@H](COP(=O)(O)OP(=O)(O)OP(=O)(O)O)[C@@H](O)[C@H]2O)c(=O)[nH]1
[7]
  binding: no

## CCCC(C(=O)c1ccc2c(c1)OCO2)N1CCCC1 (racemic)
[4]
  binding: yes
[9]
  binding: no
[1]; [18]
  Kd: 18.8 ± 1.4 µM
[10]
  Kd: 24.8 ± 0.7 µM

## CCNC(C)C(=O)c1ccc2c(c1)OCO2 (racemic)
[5]
  Kd: 254 ± 22 µM
[1]; [18]
  Kd: 61 ± 2 µM

## CNC(C)C(=O)c1ccc(C)cc1 (racemic)
[5]; 10 mM Tris-HCl pH 7.4, 23 °C, one-site fit with half the racemate concentration
  Kd: 15 ± 1.3 µM
[11]
  binding: yes
[12]
  binding: yes
[13]
  Kd: 6.6 ± 0.7 µM
[14]
  binding: no
[15]
  binding: no
[16]
  binding: yes

## CNC(C)C(=O)c1ccc(F)cc1 (racemic)
[5]
  Kd: > 1000 µM

## CNC(C)C(=O)c1ccc(OC)cc1 (racemic)
[5]; 10 mM Tris-HCl pH 7.4, 23 °C, 10-fold lower affinity than mephedrone, half racemate concentration
  Kd: 146 ± 34 µM

## CNC(C)C(=O)c1ccc2c(c1)OCO2 (racemic)
[5]
  Kd: 275 ± 17 µM

## CNC(C)C(=O)c1cccc(C)c1 (racemic)
[5]
  Kd: > 1000 µM

## CNC(C)C(=O)c1ccccc1 (racemic)
[5]
  Kd: 654 ± 61 µM
